Measured values published in US9012475B2, “Method for enhancing anti-tumor effect of a microtubule-targeting drug, and a method for treatment of tumor” (Taiho Pharmaceutical Co., Ltd., priority 2013, dated 2015).

Key:
human Aurora A = human Aurora A (Homo sapiens (Human), UniProt O14965); assay: Measurement of Aurora A inhibitory activity (IMAP fluorescence polarization kinase assay); assay type: biochemical; settings: ATP 5 μM, 25° C., 50 minutes
Description: (§1) The inhibitory activities of a test compound against Aurora A and Aurora B were measured according to the following method.
Complementary DNA of human Aurora A was fused with a histidine tag at the amino terminal, inserted into an expression vector and highly expressed in Escherichia coli BL21-CodonPlus (DE3)-RIL strain. After Escherichia coli was recovered and lysed, human Aurora A protein fused with a histidine tag was allowed to bind to a nickel chelate column and eluted by imidazole from the column. An active fraction was desalted by a desalting column to obtain purified enzyme.
In measuring inhibitory activity of the compound, first, the test compound was serially diluted by dimethylsulfoxide (DMSO). […] To the mixture, IMAP (registered trade mark) Progressive Binding Reagent diluted 500× with IMAP (registered trade mark) Progressive Binding Buffer A (manufactured by Molecular Devices) was added to terminate the kinase reaction. […] Based on the obtained fluorescence polarization degree, the amount of phosphorylation reaction was obtained.

human Aurora B = human Aurora B (Homo sapiens (Human), UniProt Q96GD4); assay: Measurement of Aurora B kinase activity; assay type: biochemical; settings: ATP 40 μM, 60 minutes
Chain of human Aurora B (Q96GD4 whole entry): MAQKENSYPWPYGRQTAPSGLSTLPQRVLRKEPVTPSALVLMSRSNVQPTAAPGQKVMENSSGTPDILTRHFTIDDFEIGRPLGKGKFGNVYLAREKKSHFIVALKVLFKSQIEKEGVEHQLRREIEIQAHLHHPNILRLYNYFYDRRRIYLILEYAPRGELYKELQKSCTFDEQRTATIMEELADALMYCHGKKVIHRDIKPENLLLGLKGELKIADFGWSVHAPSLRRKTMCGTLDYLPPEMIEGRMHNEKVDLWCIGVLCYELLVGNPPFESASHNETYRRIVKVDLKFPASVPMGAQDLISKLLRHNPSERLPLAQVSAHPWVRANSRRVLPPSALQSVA
Chain of human Aurora B (Q9NQS7 803-916 partner): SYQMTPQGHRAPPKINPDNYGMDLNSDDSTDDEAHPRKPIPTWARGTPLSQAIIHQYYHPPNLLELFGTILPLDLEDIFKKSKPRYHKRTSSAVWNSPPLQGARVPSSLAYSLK
Description: as §1
The concentration of the compound at which 50% of the phosphorylation reaction was suppressed was defined as IC50 value (nM).

[1] = Evaluation of oral absorption property; assay type: in vivo, BALE/cA mice; settings: oral administration in 0.5% HPMC, plasma 0.5-6 hours, LCMS
Description: A test compound was suspended or dissolved in 0.5% HPMC and orally administered to BALE/cA mice. At the time points of 0.5, 1, 2, 4 and 6 hours after oral administration, blood was sampled from the back of the eye to obtain blood plasma. The concentration of the compound in the obtained blood plasma was measured by LCMS and evaluated for oral absorption property.

[2] = system: human-derived uterus cancer cell strain HeLa-luc; settings: Group 1: paclitaxel 10 mg/kg iv day 1 alone, 5 rats
Description: Cells (1×10^7) of human-derived uterus cancer cell strain HeLa-luc (manufactured by PerkinElmer Co., Ltd.) having a luciferase gene introduced therein were subcutaneously grafted to the right abdomens of nude rats. At the time the volume of a tumor developed from grafted cells reached about 200 mm^3, the rats were divided into groups each consisting of 5 rats according to stratified randomization such that each group had almost the same tumor volume. […] To Group 2 and 3, paclitaxel was administered and, on the next day, Compound 1 (30 mg/kg) was orally administered twice per day for one day or 4 days (sequential administration, see FIG. 1 (A), Sequential treatment). To the rats of Group 4 and 5, paclitaxel was administered and, on the same day, Compound 1 (30 mg/kg) was orally administered twice per day for 2 days or 4 days (concurrent administration, see FIG. 1 (B), Concurrent treatment). Compound 1 was suspended or dissolved in 0.5% (w/v) hydroxypropyl methyl cellulose (HPMC). Paclitaxel was dissolved in Cremophor EL and anhydrous ethanol, diluted with physiological saline so as to obtain a predetermined concentration and put in use.
The presence or absence of a therapeutic effect was determined by measuring the major axis and minor axis of a tumor with time and obtaining a tumor volume (TV), relative tumor volume (RTV) and T/C (%) value (average relative tumor volume ratio of the treatment group to the control group) on day 10 after initiation of administration according to the following expressions. Tumor volume (TV)={(major axis)×(minor axis)^2}/2 Relative tumor volume (RTVn) on measurement day (n)=TVn/TV1 T/C(%)={(average RTVn of treatment group)/(average RTVn of control group)}×100
TV1 represents tumor volume at the administration initiation time
Furthermore, an individual in which a tumor disappeared was specified as CR (complete remission/complete response) and the number of cases was obtained.

Chain of human Aurora A (O14965 whole entry): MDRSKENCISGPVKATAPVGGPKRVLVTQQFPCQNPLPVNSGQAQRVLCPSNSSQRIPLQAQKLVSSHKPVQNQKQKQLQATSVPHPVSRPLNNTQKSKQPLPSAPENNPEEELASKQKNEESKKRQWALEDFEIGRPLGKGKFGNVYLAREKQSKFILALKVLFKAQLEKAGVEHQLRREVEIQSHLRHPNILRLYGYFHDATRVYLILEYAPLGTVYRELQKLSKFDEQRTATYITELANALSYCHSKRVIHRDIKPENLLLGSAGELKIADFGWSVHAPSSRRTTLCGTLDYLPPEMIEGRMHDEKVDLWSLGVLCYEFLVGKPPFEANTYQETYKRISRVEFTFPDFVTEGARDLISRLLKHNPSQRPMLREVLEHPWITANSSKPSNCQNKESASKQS

## Cc1cc(Nc2nc(CC3(C(=O)O)CCN(C(=O)c4cccc(C(F)(F)F)c4F)CC3)ccc2F)n[nH]1 [Production Example 2, 1-(2-fluoro-3-trifluoromethylbenzoyl)-4-((5-fluoro-6-(5-methyl-1H-pyrazol-3-ylamino)pyridin-2-yl)methyl)piperidine-4-carboxylic acid]
Human Aurora A
  IC50: 0.5 nM
Human Aurora B
  IC50: 340 nM

## COc1ccc(CC2(C(=O)O)CCN(C(=O)c3cccc(Cl)c3F)CC2)nc1Nc1cc(C)[nH]n1 [Production Example 11, 1-(3-chloro-2-fluorobenzoyl)-4-((5-methoxy-6-(5-methyl-1H-pyrazol-3-ylamino)pyridin-2-yl)methyl)piperidine-4-carboxylic acid]
Human Aurora A
  IC50: 0.6 nM
Human Aurora B
  IC50: 930 nM
[1]
  oral absorption property (concentration in blood plasma): satisfactory oral absorption property

## Cc1cc(Nc2nc(CC3(C(=O)O)CCN(C(=O)c4cccc(Cl)c4F)CC3)ccc2Cl)n[nH]1 [Production Example 12, 1-(3-chloro-2-fluorobenzoyl)-4-((5-chloro-6-(5-methyl-1H-pyrazol-3-ylamino)pyridin-2-yl)methyl)piperidine-4-carboxylic acid]
Human Aurora A
  IC50: 0.4 nM
Human Aurora B
  IC50: 260 nM
[1]
  oral absorption property (concentration in blood plasma): satisfactory oral absorption property

## Cc1cc(Nc2nc(CC3(C(=O)O)CCN(C(=O)c4cccc(Cl)c4F)CC3)ccc2F)n[nH]1 [Production Example 13, 1-(3-chloro-2-fluorobenzoyl)-4-((5-fluoro-6-(5-methyl-1H-pyrazol-3-ylamino)pyridin-2-yl)methyl)piperidine-4-carboxylic acid]
Human Aurora A
  IC50: 0.4 nM
Human Aurora B
  IC50: 180 nM
[1]
  oral absorption property (concentration in blood plasma): satisfactory oral absorption property

## CNC(=O)C1(Cc2ccc(F)c(Nc3cc(C)[nH]n3)n2)CCN(C(=O)c2cccc(Cl)c2F)CC1 [Production Example 14, 1-(3-chloro-2-fluorobenzoyl)-4-((5-fluoro-6-(5-methyl-1H-pyrazol-3-ylamino)pyridin-2-yl)methyl)-N-methylpiperidine-4-carboxyamide]
Human Aurora A
  IC50: 0.9 nM
Human Aurora B
  IC50: 460 nM

## Cc1cc(Nc2nc(CC3(C(=O)NC4CC4)CCN(C(=O)c4cccc(Cl)c4F)CC3)ccc2F)n[nH]1 [Production Example 17, 1-(3-chloro-2-fluorobenzoyl)-N-cyclopropy1-4-((5-fluoro-6-(5-methyl-1H-pyrazol-3-ylamino)pyridin-2-yl)methyl)piperidine-4-carboxyamide]
Human Aurora A
  IC50: 0.9 nM
Human Aurora B
  IC50: 900 nM

## Cc1cc(Nc2nc(CC3(C(=O)N4CCC4)CCN(C(=O)c4cccc(Cl)c4F)CC3)ccc2F)n[nH]1 [Production Example 19, azetidin-1-yl(1-(3-chloro-2-fluorobenzoyl)-4-((5-fluoro-6-(5-methyl-1H-pyrazol-3-ylamino)pyridin-2-yl)methyl)piperidine-4-yl)methanone]
Human Aurora A
  IC50: 1 nM
Human Aurora B
  IC50: 880 nM

## Cc1cc(Nc2nc(CC3(c4noc(C)n4)CCN(C(=O)c4cccc(Cl)c4F)CC3)ccc2F)n[nH]1 [Production Example 22, (3-chloro-2-fluorophenyl)(4-((5-fluoro-6-(5-methyl-1H-pyrazol-3-ylamino)pyridin-2-yl)methyl)-4-(5-methyl-1,2,4-oxadiazol-3-yl)piperidine-1-yl)methanone]
Human Aurora A
  IC50: 0.7 nM
Human Aurora B
  IC50: 380 nM
[1]
  oral absorption property (concentration in blood plasma): satisfactory oral absorption property

## Cc1cc(Nc2nc(CC3(c4ncon4)CCN(C(=O)c4cccc(Cl)c4F)CC3)ccc2F)n[nH]1 [Production Example 24, (3-chloro-2-fluorophenyl)(4-((5-fluoro-6-(5-methyl-1H-pyrazol-3-ylamino)pyridin-2-yl)methyl)-4-(1,2,4-oxadiazol-3-yl)piperidine-1-yl)methanone]
Human Aurora A
  IC50: 0.5 nM
Human Aurora B
  IC50: 190 nM

## Cc1cc(Nc2nc(CC3(c4nnc(C)o4)CCN(C(=O)c4cccc(Cl)c4F)CC3)ccc2F)n[nH]1 [Production Example 28, (3-chloro-2-fluorophenyl)(4-((5-fluoro-6-(5-methyl-1H-pyrazol-3-ylamino)pyridin-2-yl)methyl)-4-(5-methyl-1,3,4-oxadiazol-2-yl)piperidine-1-yl)methanone]
Human Aurora A
  IC50: 0.7 nM
Human Aurora B
  IC50: 450 nM

## Cc1noc(C2(Cc3ccc(F)c(Nc4cc(C)[nH]n4)n3)CCN(C(=O)c3cccc(Cl)c3F)CC2)n1 [Production Example 29, (3-chloro-2-fluorophenyl)(4-((5-fluoro-6-(5-methyl-1H-pyrazol-3-ylamino)pyridin-2-yl)methyl)-4-(3-methyl-1,2,4-oxadiazol-5-yl)piperidine-1-yl)methanone]
Human Aurora A
  IC50: 0.8 nM
Human Aurora B
  IC50: 390 nM

## CC(=O)O[C@H]1C(=O)[C@@]2(C)[C@H]([C@H](OC(=O)c3ccccc3)[C@]3(O)C[C@H](OC(=O)[C@H](O)[C@@H](NC(=O)c4ccccc4)c4ccccc4)C(C)=C1C3(C)C)[C@]1(OC(C)=O)CO[C@@H]1C[C@@H]2O [paclitaxel, reference compound]
[2]
  number of CR cases: no CR cases
